Assay results: patent US20250296937A1, “CYCLIC BISBENZYL TETRAHYDROISOQUINOLINE COMPOUND, AND PREPARATION METHOD THEREFOR AND USE THEREOF” (Shanghai Institute of Materia Medica, Chinesse Academy of …, priority 2021, published 2025)
“Also recorded” adds a separate entry of the source.

Legend:
[1] = molecular target: hNav1.5 sodium channel (Homo sapiens, UniProt Q14524)
Text: Nav1.5: CHL cells stably expressing hNav1.5 sodium channel was used to record hNav1.5 sodium channel currents by whole-cell membrane clamp technique at room temperature. The glass microelectrodes were made from glass electrode blanks (BF150-86-10, Sutter) by pulling through a puller, and the tip resistance was about 2-5 MΩ after filling the electrode with internal fluid, and the glass microelectrodes were connected to Axopatch 200B (Molecular Devices) membrane clamp amplifier by inserting the glass microelectrodes into the amplifier probe. Clamp voltage and data recording were controlled and recorded by pClamp 10 software via a computer with a sampling frequency of 10 kHz and a filtering frequency of 2 kHz. After obtaining whole-cell recordings, the cells were clamped at −80 mV, given a hyperpolarizing voltage of 200 ms to −120 mV, and then depolarized to −20 mV for 20 ms to evoke a Nav1.5 current. This voltage stimulus was given every 10 s; after the hNav1.5 sodium current was determined to be stabilized (for at least 1 min), begins the dosing process. Concentrations of the sample to be tested were administered continuously starting from low test concentration, and each test concentration was given for 1 min to reach steady state of action or for a maximum of 3 min. A minimum of 3 cells (n≥3) were tested at each concentration of the sample to be tested, and a minimum of 2 cells (n≥2) were tested at each concentration of the positive control.
Extracellular fluid formulation (mM): 140 NaCl, 5 KCl, 1 CaCl2, 1.25 MgCl2, 10 HEPES and 10 Glucose, adjusting the pH to 7.4 with NaOH.
Intracellular fluid formulation (mM): 130 CsF, 10 NaCl, 10 EGTA and 10 HEPES, adjusting the pH to 7.2 with CsOH.

[2] = system: LPS-induced acute inflammation; test: In vivo LPS-induced acute inflammation in mice (Q-PCR of lung/spleen, serum Elisa); parameters: species or system C57BL/6 mice; settings: 30 mg/kg orally 2 h after 3 mg/kg LPS i.p.; samples 4 h after administration
Method: In this example, the effects of compounds on LPS-induced acute inflammation model in vivo were analyzed by the expression levels of inflammatory factors; the mRNA expression levels of tissue inflammation-related indicators were detected by the method of real-time quantitative PCR (Q-PCR), and the levels of inflammatory factors in serum were detected by the method of Elisa. C57BL/6 mice were purchased from SLAC, and the Elisa kits were purchased from Novusbio, with item no. 890860 for IL-6 and item no. 266117 for TNF-α. […]
Construction of inflammation model in mice: C57BL/6 mice were randomly divided into three groups: one control group, five experimental animals; one LPS modeling group, with five experimental animals; and two treatment groups, with five experimental animals. […] The blood was collected from the orbit of mice in each group at 4 h after the administration of the drug, and the spleen and lung tissues were collected after the euthanasia. mRNA was extracted from lung and spleen tissues respectively, and real-time quantitative PCR was performed after reverse transcription to assess the mRNA expression level of inflammation-related indicators, and Elisa assay was performed after serum extraction to assess the secretion level of inflammatory factors.

Sequence of hNav1.5 sodium channel (Q14524 whole entry): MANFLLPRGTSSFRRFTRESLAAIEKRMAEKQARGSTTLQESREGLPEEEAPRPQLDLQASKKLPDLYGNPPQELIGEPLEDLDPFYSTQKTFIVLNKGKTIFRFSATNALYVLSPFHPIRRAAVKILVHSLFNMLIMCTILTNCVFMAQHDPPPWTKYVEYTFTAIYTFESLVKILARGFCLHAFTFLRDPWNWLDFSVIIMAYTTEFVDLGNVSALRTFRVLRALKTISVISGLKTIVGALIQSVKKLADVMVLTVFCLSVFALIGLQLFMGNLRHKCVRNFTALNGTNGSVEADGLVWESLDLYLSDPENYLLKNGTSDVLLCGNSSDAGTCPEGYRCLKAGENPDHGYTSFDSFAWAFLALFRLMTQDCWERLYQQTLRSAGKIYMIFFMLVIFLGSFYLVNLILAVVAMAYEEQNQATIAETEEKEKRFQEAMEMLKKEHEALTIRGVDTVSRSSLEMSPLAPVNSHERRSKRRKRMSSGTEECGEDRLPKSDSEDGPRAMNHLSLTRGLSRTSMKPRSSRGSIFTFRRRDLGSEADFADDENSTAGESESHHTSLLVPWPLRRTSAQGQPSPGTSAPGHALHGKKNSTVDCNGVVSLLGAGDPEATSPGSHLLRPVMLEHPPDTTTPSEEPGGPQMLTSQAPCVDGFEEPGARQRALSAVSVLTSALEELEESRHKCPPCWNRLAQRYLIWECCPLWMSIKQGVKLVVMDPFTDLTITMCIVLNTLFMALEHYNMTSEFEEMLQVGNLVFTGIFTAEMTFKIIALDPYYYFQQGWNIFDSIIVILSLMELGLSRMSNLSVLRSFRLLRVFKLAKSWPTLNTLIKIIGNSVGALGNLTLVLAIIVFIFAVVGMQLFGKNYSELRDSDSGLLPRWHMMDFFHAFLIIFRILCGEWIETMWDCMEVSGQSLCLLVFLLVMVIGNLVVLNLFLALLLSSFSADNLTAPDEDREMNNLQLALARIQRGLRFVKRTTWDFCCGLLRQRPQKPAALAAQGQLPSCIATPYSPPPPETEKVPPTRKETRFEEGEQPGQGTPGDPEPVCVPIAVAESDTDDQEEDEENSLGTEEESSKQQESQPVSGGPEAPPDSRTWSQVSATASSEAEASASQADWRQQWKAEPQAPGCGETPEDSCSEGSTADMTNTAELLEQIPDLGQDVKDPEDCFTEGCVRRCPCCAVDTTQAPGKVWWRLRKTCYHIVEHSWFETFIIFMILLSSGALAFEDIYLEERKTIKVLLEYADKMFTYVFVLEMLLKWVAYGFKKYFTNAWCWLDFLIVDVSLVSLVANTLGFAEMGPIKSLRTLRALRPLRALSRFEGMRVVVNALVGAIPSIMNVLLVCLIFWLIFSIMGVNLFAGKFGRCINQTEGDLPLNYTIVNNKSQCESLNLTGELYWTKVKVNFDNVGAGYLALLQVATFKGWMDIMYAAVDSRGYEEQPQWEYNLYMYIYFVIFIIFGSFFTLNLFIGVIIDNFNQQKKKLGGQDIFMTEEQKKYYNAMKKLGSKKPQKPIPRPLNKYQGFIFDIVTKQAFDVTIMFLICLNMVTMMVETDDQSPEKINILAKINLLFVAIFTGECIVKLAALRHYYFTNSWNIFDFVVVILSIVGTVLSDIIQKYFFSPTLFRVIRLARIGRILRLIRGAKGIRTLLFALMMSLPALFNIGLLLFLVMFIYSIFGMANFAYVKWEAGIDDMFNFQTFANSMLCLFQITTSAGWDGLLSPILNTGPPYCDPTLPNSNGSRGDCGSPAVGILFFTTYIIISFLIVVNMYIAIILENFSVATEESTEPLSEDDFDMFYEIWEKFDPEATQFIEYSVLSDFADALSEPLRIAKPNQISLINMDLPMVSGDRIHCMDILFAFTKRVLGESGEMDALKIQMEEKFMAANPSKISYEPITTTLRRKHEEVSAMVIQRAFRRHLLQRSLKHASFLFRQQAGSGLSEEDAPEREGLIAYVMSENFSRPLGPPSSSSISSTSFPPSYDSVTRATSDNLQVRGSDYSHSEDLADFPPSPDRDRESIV

CCCCNC(=O)Oc1ccc2cc1Oc1ccc(cc1)C[C@H]1c3c(cc(OC)c(OC)c3Oc3cc4c(cc3OC)CCN(C)[C@@H]4C2)CCN1C [Compound 2]
activity against Nav1.5 channels [1]: weakly active

COc1cc2c3cc1Oc1c(OC)c(OC)cc4c1[C@H](Cc1ccc(cc1)Oc1cc(ccc1C(N)=O)C[C@H]3N(C)CC2)N(C)CC4 [Compound 4]
inflammatory factors and chemokines, mRNA levels and cytokine secretion levels, LPS-induced acute inflammation in mice [2]: significantly inhibited; also recorded: significant decrease
